Source: patent US20210290604A1, “COMPOUNDS FOR TREATMENT OF INFLAMMATORY BOWEL DISEASE AND METHODS THEREOF” (priority 2018, published 2021)

Tested on: TNBS-induced colitis
Test: TNBS-induced colitis in mice, oral dosing once a day Days 1-7
Assay type: in vivo, female SJL mice
Design: Disease Activity Index, Mean / Fecal Consistency, Mean: scale not given here
Conditions: for Histopathological severity score, Mean: colon H&E, score 0-4; for overall conclusion as compared to TNBS-vehicle (in words): oral
Experimental: Healthy young female SJL mice were used for the study. At the commencement of the study, the mice were between 8-9 weeks of age, weighing 20-22 g. All the mice were obtained from The Jackson Laboratory, Bar Harbor, Me. 04609 USA.
After seven days of acclimatization, mice were grouped according to their body weight. There was one group of ten mice and five groups of fifteen mice each. Five groups of fifteen mice each were challenged intra-rectally with 100 μl of 2.0% TNBS in 50% EtOH and other group of ten mice were challenged intra-rectally with 100 μl of 50% EtOH and serve as No-TNBS control. The experimental groups were as follows:
The mice were challenged intra-rectally with 100 μl of 2% TNBS in 50% ethanol under light anesthesia with ketamine/xylazine. The test compounds were administrated an hour prior to intra-rectal administration of TNBS as per scheduled daily dosing.
Vehicle and no-TNBS control groups received 0.5% CMC orally from Day 1 to Day 7.
Body Weight: The body weights were measured daily for 1-7 days using a laboratory balance.
Disease Activity Index: The clinical assessment of the mice was performed beginning Day 2 (a day after the intra-rectal administration of TNBS). The clinical assessment includes body weight, stool consistency and the presence of blood in the stools and scored according to Table 2.
Colon Length and Weight: the mice were euthanized using CO2 asphyxiation and colon from the colocecal junction to the anus was removed, washed and cleaned of all fecal matter using PBS. The colon length and weight were measured and then preserved in 10% NBF for histopathology.
Histopathology: Formalin fixed colon samples were submitted to affiliated histopathology laboratory for histopathological analysis subjected to hematoxylin and eosin (H & E) staining using standard techniques. Each colon was trimmed from both ends and mid. All three sections were stained and evaluated.
A board certified veterinarian pathologist assessed the presence of colitis and severity score according to the following criteria: • 0=no sign of inflammation • 1=very low level of inflammation • 2=low level of leukocytic infiltration, low level of inflammation • 3=high level of leukocytic infiltration, high vascular density, inflammation and thickening of colon wall • 4=transmural infiltration, loss of goblet cells, high vascular density, crypt abscesses, thickening of colon wall and ulceration.
The data is presented as the mean±standard error (SEM) obtained from Microsoft Excel or GraphPad Prism version 5.00 for Windows (GraphPad Software, San Diego Calif. USA). The data was analyzed using two-way ANOVA using Bonferroni post-test. Differences between groups were considered significant at p<0.05.

[1] = at euthanasia, 100 mg/kg PO QD Days 1-7
[2] = at euthanasia, 30 mg/kg PO QD Days 1-7

Nc1ccc(O)c(C(=O)O)c1 [5-ASA, 5-Amino-2-hydroxybenzoic acid]
histopathology, cell morphological changes / severity (in words) (100 mg/kg PO QD (Table 1)): statistically significantly reducing cell morphological changes associated with disease | body weight change as compared to the TNBS-vehicle group (in words) (100 mg/kg po): significant improvement beginning on Day 4 | Percent Change in Body Weight, Mean (Day 1, 100 mg/kg PO QD): 0.00% | Percent Survivability (Day 1, 100 mg/kg PO QD): 100.000% | Fecal Consistency, Mean (Day 2, 100 mg/kg PO QD): 1.47 | Occult Positivity, Mean (Day 2, 100 mg/kg PO QD): 1.33 | Percent Change in Body Weight, Mean (Day 2, 100 mg/kg PO QD): −10.01% | Percent Survivability (Day 2, 100 mg/kg PO QD): 100.000% | Occult Positivity, Mean (Day 3, 100 mg/kg PO QD): 2.00 | Percent Change in Body Weight, Mean (Day 3, 100 mg/kg PO QD): −10.45% | Percent Survivability (Day 3, 100 mg/kg PO QD): 100.000% | Percent Change in Body Weight, Mean (Day 4, 100 mg/kg PO QD): −9.33% | Percent Survivability (Day 4, 100 mg/kg PO QD): 93.000% | Fecal Consistency, Mean (Day 5, 100 mg/kg PO QD): 1.38 | Occult Positivity, Mean (Day 5, 100 mg/kg PO QD): 2.15 | Percent Change in Body Weight, Mean (Day 5, 100 mg/kg PO QD): −7.81% | Percent Survivability (Day 5, 100 mg/kg PO QD): 86.670% | Fecal Consistency, Mean (Day 6, 100 mg/kg PO QD): 0.83 | Occult Positivity, Mean (Day 6, 100 mg/kg PO QD): 1.67 | Percent Change in Body Weight, Mean (Day 6, 100 mg/kg PO QD): −5.87% | Percent Survivability (Day 6, 100 mg/kg PO QD): 80.000% | occult positivity as compared to TNBS-vehicle (in words) (Day 7, 100 mg/kg): significant improvements | Fecal Consistency, Mean (Day 7, 100 mg/kg PO QD): 0.83 | Occult Positivity, Mean (Day 7, 100 mg/kg PO QD): 1.17 | Percent Change in Body Weight, Mean (Day 7, 100 mg/kg PO QD): −6.09% | Percent Survivability (Day 7, 100 mg/kg PO QD): 80.000% | Colon Length, Mean [1]: 9.08 cm | Colon Weight, Mean [1]: 0.2494 g | Histopathological severity score, Mean (100 mg/kg PO QD Days 1-7): 1.08 | overall conclusion as compared to TNBS-vehicle (in words) (100 mg/kg): showed improvement in the colitis, loss of body weight and disease activity index

O=C(Nc1ccc2[nH]c(=O)oc2c1)C(=O)N1CCC(Cc2ccc(F)cc2)CC1 [Radiprodil, 2-[4-[(4-fluorophenyl)methyl]piperidin-1-yl]-2-oxo-N-(2-oxo-3H-1,3-benzoxazol-6-yl)acetamide]
Disease Activity Index vs TNBS-vehicle group (in words) (30 mg/kg): No significant differences | histopathology, cell morphological changes / severity (in words) (30 mg/kg PO QD (Table 1)): reduced severity | body weight change as compared to the TNBS-vehicle group (in words) (30 mg/kg po): significant improvement beginning Day 4, with the exception of Day 3 | Percent Change in Body Weight, Mean (Day 1, 30 mg/kg PO QD): 0.00% | Percent Survivability (Day 1, 30 mg/kg PO QD): 100.000% | Disease Activity Index, Mean (Day 2, 30 mg/kg PO QD): 1.84 | Fecal Consistency, Mean (Day 2, 30 mg/kg PO QD): 1.20 | Occult Positivity, Mean (Day 2, 30 mg/kg PO QD): 2.00 | Percent Change in Body Weight, Mean (Day 2, 30 mg/kg PO QD): −10.51% | Percent Survivability (Day 2, 30 mg/kg PO QD): 100.000% | Disease Activity Index, Mean (Day 3, 30 mg/kg PO QD): 2.24 | Fecal Consistency, Mean (Day 3, 30 mg/kg PO QD): 1.33 | Occult Positivity, Mean (Day 3, 30 mg/kg PO QD): 2.53 | Percent Change in Body Weight, Mean (Day 3, 30 mg/kg PO QD): −13.08% | Percent Survivability (Day 3, 30 mg/kg PO QD): 100.000% | Disease Activity Index, Mean (Day 4, 30 mg/kg PO QD): 2.13 | Fecal Consistency, Mean (Day 4, 30 mg/kg PO QD): 1.23 | Occult Positivity, Mean (Day 4, 30 mg/kg PO QD): 2.46 | Percent Change in Body Weight, Mean (Day 4, 30 mg/kg PO QD): −10.35% | Percent Survivability (Day 4, 30 mg/kg PO QD): 86.670% | Disease Activity Index, Mean (Day 5, 30 mg/kg PO QD): 1.78 | Fecal Consistency, Mean (Day 5, 30 mg/kg PO QD): 1.00 | Occult Positivity, Mean (Day 5, 30 mg/kg PO QD): 2.33 | Percent Change in Body Weight, Mean (Day 5, 30 mg/kg PO QD): −8.29% | Percent Survivability (Day 5, 30 mg/kg PO QD): 80.000% | Disease Activity Index, Mean (Day 6, 30 mg/kg PO QD): 1.67 | Fecal Consistency, Mean (Day 6, 30 mg/kg PO QD): 1.00 | Occult Positivity, Mean (Day 6, 30 mg/kg PO QD): 2.17 | Percent Change in Body Weight, Mean (Day 6, 30 mg/kg PO QD): −7.58% | Percent Survivability (Day 6, 30 mg/kg PO QD): 80.000% | Disease Activity Index, Mean (Day 7, 30 mg/kg PO QD): 1.50 | Fecal Consistency, Mean (Day 7, 30 mg/kg PO QD): 1.00 | Occult Positivity, Mean (Day 7, 30 mg/kg PO QD): 1.83 | Percent Change in Body Weight, Mean (Day 7, 30 mg/kg PO QD): −6.95% | Percent Survivability (Day 7, 30 mg/kg PO QD): 80.000% | Colon Length, Mean [2]: 8.42 cm | Colon Weight, Mean [2]: 0.3095 g | Colon Weight/Length ratio, Mean [2]: 37.7622 mg/cm | Histopathological severity score, Mean (30 mg/kg PO QD Days 1-7): 1.61 | overall conclusion as compared to TNBS-vehicle (in words) (30 mg/kg): showed improvement in colitis as well as in the loss of body weight, DAI, colon length, weight and weight/length ratio
